# Measured values taken from article PMC6219668 (Oncotarget, 2018).
# Test system: panel of nearly 500 cancer cell lines
# Assay: Cancer Cell Line Encyclopedia profiling, 3-day CellTiter-Glo
# Format: cell-based
# Conditions: Homo sapiens
compound,measurement,setting,value
"CN(C)C(=O)c1cc2cnc(Nc3ccc(N4CCNCC4)cn3)nc2n1C1CCCC1 [Ribociclib, 7-cyclopentyl-2-(5-piperazin-1-yl-pyridin-2-ylamino)-7H-pyrrolo[2,3-d]pyrimidine-6-carboxylic acid dimethylamide]",IC50,NCI-H1666,> 8 µM
same,EC50,NCI-H1693,0.351 µM
same,IC50,NCI-H1693,> 8 µM
same,EC50,NCI-H1694,> 8 µM
same,IC50,NCI-H1694,> 8 µM
same,EC50,NCI-H1703,1.11 µM
same,IC50,NCI-H1703,> 8 µM
same,EC50,NCI-H1792,> 8 µM
same,IC50,NCI-H1792,> 8 µM
same,EC50,NCI-H1793,0.00418 µM
same,IC50,NCI-H1793,> 8 µM
same,EC50,NCI-H1944,2.5 µM
same,IC50,NCI-H1944,> 8 µM
same,EC50,NCI-H1975,1.05 µM
same,IC50,NCI-H1975,> 8 µM
same,EC50,NCI-H2009,> 8 µM
same,IC50,NCI-H2009,> 8 µM
same,EC50,NCI-H2030,1.29 µM
same,IC50,NCI-H2030,> 8 µM
same,EC50,NCI-H2052,0.0207 µM
same,IC50,NCI-H2052,> 8 µM
same,EC50,NCI-H2087,0.338 µM
same,IC50,NCI-H2087,> 8 µM
same,EC50,NCI-H2122,> 8 µM
same,IC50,NCI-H2122,3.73 µM
same,EC50,NCI-H2170,> 8 µM
same,IC50,NCI-H2170,> 8 µM
same,EC50,NCI-H2228,> 8 µM
same,IC50,NCI-H2228,> 8 µM
same,EC50,NCI-H2286,0.506 µM
same,IC50,NCI-H2286,> 8 µM
same,EC50,NCI-H2444,> 8 µM
same,IC50,NCI-H2444,> 8 µM
same,EC50,NCI-H2452,0.3 µM
same,IC50,NCI-H2452,> 8 µM
same,EC50,NCI-H3255,> 8 µM
same,IC50,NCI-H3255,> 8 µM
same,EC50,NCI-N87,> 8 µM
same,IC50,NCI-N87,> 8 µM
same,EC50,NUGC-3,> 8 µM
same,IC50,NUGC-3,> 8 µM
same,EC50,NUGC-4,0.212 µM
same,IC50,NUGC-4,1.07 µM
same,EC50,OC-314,> 8 µM
same,IC50,OC-314,> 8 µM
same,EC50,OCI-AML2,0.838 µM
same,IC50,OCI-AML2,1.16 µM
same,EC50,OCI-AML-5,0.187 µM
same,IC50,OCI-AML-5,> 8 µM
same,EC50,OCI-Ly10,> 8 µM
same,IC50,OCI-Ly10,> 8 µM
same,EC50,OE33,> 8 µM
same,IC50,OE33,> 8 µM
same,EC50,OV-90,0.0694 µM
same,IC50,OV-90,> 8 µM
same,EC50,OVCAR-3,> 8 µM
same,IC50,OVCAR-3,> 8 µM
same,EC50,OVCAR-4,> 8 µM
same,IC50,OVCAR-4,> 8 µM
same,EC50,OVCAR-8,> 8 µM
same,IC50,OVCAR-8,> 8 µM
same,EC50,OVSAHO,> 8 µM
same,IC50,OVSAHO,> 8 µM
same,EC50,P3HR-1,> 8 µM
same,IC50,P3HR-1,> 8 µM
same,EC50,P12-Ichikawa,0.797 µM
same,IC50,P12-Ichikawa,3.74 µM
same,EC50,P31-FUJ,> 8 µM
same,IC50,P31-FUJ,> 8 µM
same,EC50,PANC-03-27,> 8 µM
same,IC50,PANC-03-27,> 8 µM
same,EC50,PC-14,4.03 µM
same,IC50,PC-14,> 8 µM
same,EC50,PLC-PRF-5,> 8 µM
same,IC50,PLC-PRF-5,> 8 µM
same,EC50,PSN1,2.03 µM
same,IC50,PSN1,> 8 µM
same,EC50,Panc 02.03,> 8 µM
same,IC50,Panc 02.03,> 8 µM
same,EC50,Panc 04.03,> 8 µM
same,IC50,Panc 04.03,> 8 µM
same,EC50,Panc1005,> 8 µM
same,IC50,Panc1005,> 8 µM
same,EC50,Pfeiffer,> 8 µM
same,IC50,Pfeiffer,> 8 µM
same,EC50,RL95-2,3.35 µM
same,IC50,RL95-2,> 8 µM
same,EC50,RPMI 8402,0.951 µM
same,IC50,RPMI 8402,1.54 µM
same,EC50,RPMI-7951,0.807 µM
same,IC50,RPMI-7951,> 8 µM
same,EC50,RT-112,0.545 µM
same,IC50,RT-112,> 8 µM
same,EC50,RVH-421,> 8 µM
same,IC50,RVH-421,> 8 µM
same,EC50,Raji,> 8 µM
same,IC50,Raji,> 8 µM
same,EC50,SAOS-2,> 8 µM
same,IC50,SAOS-2,> 8 µM
same,EC50,SBC-5,2.3 µM
same,IC50,SBC-5,> 8 µM
same,EC50,SCC-9,0.00254 µM
